Assay results taken from patent US20020035125A1, “Therapeutic combination” (priority 2000, published 2002).

Conditions: 100% relative humidity over 48 hours

- Hygroscopicity: Non-hygroscopic
SMILES: CCOC(=O)N1c2ccc(C(F)(F)F)cc2[C@@H](N(Cc2cc(C(F)(F)F)cc(C(F)(F)F)c2)C(=O)OC)C[C@H]1CC [Example 9, Anhydrous (−)-(2R,4S)-4-[(3,5-Bis-trifluoromethyl-benzyl)-methoxycarbonyl-amino]-2-ethyl-6-trifluoromethyl-3,4-dihydro-2H-quinoline-1-carboxylic Acid Ethyl Ester]
